Test results published in patent US10123904B2, “Preservative removal from eye drops” (University of Florida Research Foundation, Inc., priority 2014, dated 2018).
Counter-ions that a name gives are not always drawn. Like-named read-outs stand apart in the source and are kept apart here. Marks after values point to notes of the source that are not given here.

Tests used:
[1] = Partition coefficient of drugs and BAK in macroporous pHEMA gel; type: physicochemical; details: for Partition coefficient in macroporous pHEMA gel: 250 mg gel soaked in 12 mL drug or BAK solution in PBS, 15 days, mean ± SD, n = 3; for Partition coefficient smaller than that of BAK: macroporous pHEMA gel
Description: As indicated above, the absorption percentage of hydrophilic drug is small, whereas a significant amount of hydrophobic drug is uptake by the macroporous pHEMA gel. The high affinity of hydrophobic drug to the gel can be determined by measuring the partition coefficient of the drug in the gel. To measure the partition coefficient, a piece of macroporous pHEMA gel of 250 mg was soaked in 12 mL of drug or BAK solution. After 15 days of soaking, the concentration of the drug or BAK solution was measured by using UV-Vis spectrophotometry. The drug or BAK concentration after soaking indicated the amount of drug or BAK in reference to the initial concentration is that absorbed into the gel. The partition coefficient of timolol and dorzolamide in macroporous pHEMA gel is roughly 15 times smaller than that of BAK, which is excellent separation efficiency. In contrast, the partition coefficients of latanoprost and BAK are pretty high and the separation efficiency of the gel for this mixture is poor.

[2] = BAK/drug removal by macroporous pHEMA gel plug packed in syringe, 10 consecutive passes; type: physicochemical; details: for Drug adsorption percentage: first pass through the 10th pass, macroporous pHEMA gel; for Percentage removed/absorbed after passing through plug: 2.5 mL through 5 mm macroporous pHEMA gel, 1 cm syringe
Description: The four drugs were dissolved in PBS and mixed with BAK individually. The macroporous pHEMA hydrogel prepared as above, was used as the BAK removal filter and packed into the syringe, as described above. The experimental setup is that of FIG. 3. […] The solution that passed through the filter plug was collected and the concentration of drug/BAK was determined by measuring the UV-Vis spectra. The measured UV spectrum was a linear combination of the testing drug and BAK and thus, the individual concentration of the drug and BAK could be determined by applying a least square fit method as described in Kim et al. Int. J.

[3] = Timolol/BAK separation by UV-initiated pHEMA particles (EGDMA) in eye drop bottle prototype; type: physicochemical
Description: The sodium chloride promoted phase separation of the mixture. Small globules containing HEMA monomer and EGDMA was formed by continuously stirring the system at high rpm. […] In addition, the petri dish was covered to avoid water evaporation and oxygenation. After the polymerization, the pHEMA particles were separated from the solution by vacuum filtration method and washed with a large quantity of DI water to remove the unreacted monomers and other impurities. The particles were then dried in an oven of 80° C. […] The synthesized particles were packed in the prototype bottle and tested for their selectivity of separation of BAK from timolol. […] The drug/BAK solution was injected into the prototype bottle with a syringe. A clip was applied to the bottle to impose a constant pressure drop. […] The UV spectrum of the outlet solution was measured and the concentrations of the drug and BAK were determined by the least square fit method described in Kim et al., Int. J. Pharm., 2008, Apr. 2; 353(1-2):205-22. Five samples were successively removed through the plug.

[4] = 3 consecutive runs; hydrogel treated with 1% MAA
Description: The hydrogel was packed into the syringe as BAK removal filter and its separation efficiency of BAK from dexamethasone was tested in the same manner as the copolymer.

[5] = Timolol/BAK separation by heat-initiated pHEMA particles in eye drop bottle prototype; type: physicochemical
Description: FIG. 24 indicates the percentages of BAK and timolol that were absorbed after the mixture in solution was passed through the heat-initiated pHEMA particles, shown in FIG. 18. […] The hydraulic permeability of the packing particles is 0.0459 Darcy which was measured as described, above. […] The size of the particles prepared by UV or heat-initiated polymerization is similar. […] The drug/BAK solution was injected into the prototype bottle with a syringe. […] The UV spectrum of the outlet solution was measured and the individual concentration of the drug and BAK was determined by a least square fit method as described in Kim et al., Int. J.

[6] = Timolol/BAK separation by pHEMA particles with SR9035 cross-linker in eye drop bottle prototype; type: physicochemical
Description: (§1) More rigid and larger size particles create a larger void space for fluid to flow and improved hydraulic permeability. […] This would be undesirable because the plug is drug at the time of the instillation of the first drop but then could be partially or fully hydrated for subsequent instillations, depending on whether the plug retains the fluid in the interim time between successive instillations. […] During the UV curing, the mixture was continuously stirred by a 35×6 mm magnetic stirring bar at 70 rpm. In addition, the petri dish was covered to avoid water evaporation and oxygenation. After polymerization, the pHEMA gel were separated from the solution by vacuum filtration method and washed with a large quantity of DI water to remove the unreacted monomers and other impurities. The pHEMA gel was then dried in an oven of 80° C. and crushed into particles in a mortar. Selectivity of the separation of BAK from timolol was measured. […] A constant pressure drop was applied across the packed particles to maintain a constant flow rate through the plug. […] The UV spectrum of the outlet solution was measured and the concentrations of the drug and BAK were determined by the least square fit method described in Kim et al., Int. J. […] The tip of the prototype bottle was sealed with parafilm. […] The step was repeated 10 times over a total of 10 days.

[7] = Latanoprost/BAK separation by crushed macroporous pHEMA particles in eye drop bottle prototype; type: physicochemical; details: all 10 runs over 10 days; 1.5 mL, 8 mm plug, particles pre-equilibrated with latanoprost
Description: The crushed macroporous pHEMA particles were prepared as described above. The particles were packed in the eye drop bottle prototype (FIG. 19) to test its selectivity of separation of BAK from latanoprost. The concentration of latanoprost and BAK prepared for the testing were both 0.03 mg/mL with PBS as the solvent. The drug/BAK solution was injected into the prototype bottle with a syringe. A clip was clipping on the bottle to create a constant pressure drop across the packing pHEMA particles of 8 mm in length. A volume of 1.5 mL of the drug/BAK solution was passed through the filter by squeezing the bottle. The UV spectrum of the outlet solution was measured and the individual concentration of the drug and BAK was determined by a least square fit method as described in Kim et al., Int. J. Pharm., 2008, Apr. 2; 353(1-2):205-22. The tip of the prototype bottle was sealed with parafilm. After 24 hours, another 1.5 mL drug/BAK solution was removed through the same filter and again to measure the concentrations of the drug and BAK. The step was repeated 10 times over a total of 10 days.

[8] = Timolol/BAK separation by pHEMA particles with SR454HP cross-linker in eye drop bottle prototype; type: physicochemical
Description: as §1

[9] = Binding of BAK and drugs to pHEMA matrix (general statement); type: physicochemical
[10] = Partition coefficient in pHEMA particles prepared using SR9035 as cross-linker; type: physicochemical; details: 100 mg particles soaked in 3.5 mL solution, 9 days
Description: The partition coefficients of timolol, CMC and BAK in pHEMA particles prepared using SR9035 as cross-linker was measured. pHEMA particles (100 mg) were soaked in 3.5 mL of timolol, CMC and BAK solution, which concentration was 0.08 mg/mL, 0.5% and 2.4 mg/mL, respectively. After 9 days of soaking, the concentration of the drug or BAK solution was measured by using UV-Vis spectrophotometry. The drug or BAK concentration after soaking indicated the amount of drug or BAK that absorbed into the gel relative to the initial concentration. The partition coefficient of timolol and CMC in pHEMA particles is much smaller than that of BAK, and should have excellent separation efficiency.

[11] = Partition coefficient of BAK in pHEMA particles prepared by heat-initiated polymerization; type: physicochemical
[12] = BAK/drug removal by crushed macroporous pHEMA particles packed in syringe, passes separated by 24 hours; type: physicochemical
Description: Macroporous pHEMA hydrogel as prepared above was dried in the oven of 80° C. and crushed into particles and the particles packed into the syringe. Two pieces of filter papers were placed at the bottom of the syringe to prevent the packing particles from leaking out. Particles facilitate packing of a hydrogel into the neck of the eye drop bottle where packing is amenable to high-throughput industrial scale loading of gel filters. […] The process was timed using a stopwatch from the moment of placing the weight to the last drop entered the beaker. The weight of the collected solution in the beaker was measured to calculate the flow rate through the pHEMA particles. […] The UV spectrum of the collected solution was measured and the individual concentration of the drug and BAK were determined by a least square fit method as described in Kim et al., Int. J. […] After each measurement, the bottom outlet of the syringe was sealed with parafilm to prevent dehydration of the packed pHEMA particles in the manner equivalent to sealing the eye drop bottle with the cap after use.

In the case of CCN[C@H]1C[C@H](C)S(=O)(=O)c2sc(S(N)(=O)=O)cc21 [Dorzolamide, dorzolamide hydrochloride], the “Partition coefficient in macroporous pHEMA gel” value [1] is reported as 7.59 ± 0.56, the “Partition coefficient smaller than that of BAK” value [1] is reported as “roughly 15 times” and the Drug adsorption percentage [2] is reported as “about 5%”.
With Benzalkonium chloride [BAK] the Percentage removed ([3]; 5th run, 1.5 mL, 8 mm plug) was 30%, the Percentage removed ([3]; first pass, 1.5 mL, 8 mm plug) was “Roughly 50%” and the “Percentage of BAK removed” value [4] was about 100%. The Percentage removed ([5]; each of 10 passes carried out successively, 1.5 mL, 8 mm plug) was about 100%, the Percentage removed ([6]; 10th run) was “about 95%” and the Percentage removed ([6]; first 6th runs, 1.5 mL daily, 1.8 cm plug) was about 100%. The “Percentage of BAK removed” value [7] was about 100%, the Percentage removed ([8]; after the 5th run) was “about 90%” and the Percentage removed ([8]; first 3-5th runs, 1.5 mL daily, 1.8 cm plug) was about 100%. For the same compound, the “Adsorption time on pHEMA” value ([9]; compared with transit time through plug) was under 3 s, the “Partition coefficient into the pHEMA matrix” value ([9]; depending on BAK concentration and structure of the pHEMA matrix) was 100-500 and the “Partition coefficient in pHEMA particles prepared by using SR9035 as cross-linker” value [10] was about 300. For the same compound, the “Partition coefficient of BAK in pHEMA particles prepared by heat-initiated polymerization” value [11] was 200-250, the “Percentage of BAK removed” value ([12]; all 10 passes, each separated by 24 hours, regardless of the drug in the solution) was about 100% and the “Percentage removed/absorbed after passing through plug” value (“Percentage removed/absorbed” below) ([2]; 10th pass) was 70-80%. For the same compound, the “Percentage removed/absorbed” value ([2]; first run) was 100%.
For CC(C)(C)NC[C@H](O)COc1nsnc1N1CCOCC1 [Timolol, timolol maleate], the Percentage removed ([3]; each of the 5 runs) was “about 1.5%”, the Percentage removed ([5]; 1st run) was “About 17%” and the Percentage removed ([5]; 10th run) was “about 3%”. For the same compound, the Percentage removed ([6]; 1st run) was “About 25%”, the Amount removed ([6]; after the 5th run) was “negligible” and the Percentage removed ([8]; 1st run) was “About 18%”. For the same compound, the Amount removed ([8]; 10th run) was “negligible”, the “Partition coefficient in pHEMA particles prepared by using SR9035 as cross-linker” value [10] was 5.59 ± 0.13^a and the “Partition coefficient in macroporous pHEMA gel” value [1] was 6.49 ± 0.37. The “Partition coefficient smaller than that of BAK” value [1] was “roughly 15 times” and the Drug adsorption percentage [2] was “about 5%”.
With C[C@@H]1C[C@H]2[C@@H]3CCC4=CC(=O)C=C[C@]4(C)[C@@]3(F)[C@@H](O)C[C@]2(C)[C@@]1(O)C(=O)CO [Dexamethasone, dexamethasone] the “Partition coefficient in macroporous pHEMA gel” value [1] was 33.53 ± 1.31.
For CC(C)OC(=O)CCC/C=C\C[C@@H]1[C@@H](CC[C@@H](O)CCc2ccccc2)[C@H](O)C[C@@H]1O [Latanoprost, latanoprost], the “Partition coefficient in macroporous pHEMA gel” value [1] was 90.18 ± 1.36, the “Portion of drug absorbed” value ([12]; particles pre-equilibrated with the corresponding drug solution) was “only a very small portion” and the “Percentage removed/absorbed” value ([2]; 10th pass) was 30%. The “Percentage removed/absorbed” value ([2]; first run) was 90%.
